Patent publication US12065485B2, “Treatment of staphylococcal disorders” (priority 2013, dated 2024)
Counter-ions that a name gives are not always drawn. Like-named read-outs stand apart in the source and are kept apart here.

Tested on: P3 promoter (RNAIII / delta-toxin expression)
Experiment: USA300-P3-Luc reporter screen for inhibition of RNAIII induction (P3 promoter activation by AIP)
Assay type: cell-based, Staphylococcus aureus
Conditions: for inhibition at 40 µM: Staphylococcus aureus; for % Inhibition: relative to positive control (USA400 inhibitory AIP supernatant)
Procedure: Staphylococcus aureus pulse-field gel electrophoresis (PFGE) type USA300 transformed with a plasmid containing the P3 promoter followed by the luciferase gene (USA300-P3-Luc) was grown in tryptic soy broth (TSB) to […] (5×10^8 CFU/mL), as determined by optical density at 600 nm, from overnight cultured bacteria and harvested via centrifugation (4,000×g, 4° C., 5 minutes). Supernatant was removed and the bacterial pellet was washed twice with an equal volume of PBS. Bacteria were suspended in PBS at 5×10^8 CFU/mL, as confirmed by plating serial dilutions onto TSB. 2×10^6 CFU washed USA300-P3-Luc was incubated with wt USA300 8-hour filtered supernatant containing stimulatory auto-inducing peptide (AIP) at a final dilution of 1:10 and 40 μM each compound in a total of 40 μL/well of TSB on a 384-well plate. The S. aureus two-component agr system induces delta-toxin expression via expression of AIP at stationary growth phase and was used to stimulate activation of the P3 promoter. Alternatively, AIP produced by a different S. aureus strain, PFGE type USA400, acts to inhibit delta-toxin expression in USA300. As a positive control, samples were incubated with USA400 8-hour filtered supernatant containing inhibitory AIP at a final dilution of 1:10 instead of test compound. Samples were incubated at 37° C. for 2 hours, then analyzed for luminescence and optical density at 600 nm. Percent Inhibition was determined by the following formula: Percent inhibition=100×(LumNo Inhibitor−Lumcompound)/(LumNo Inhibitor.−LumPositive control). Inhibitory compounds suitable for use in methods of inhibiting skin inflammation according to the disclosure were identified (Table 2) based on at least a 40% inhibition relative to the positive control, minimal reduction in growth as determined by optical density at 600 nm, and relatively low promiscuity (<10%) in relation to other high-throughput assays performed using these compounds.

[1] = 40 μM compound, 2 hours at 37° C., luminescence, relative to positive control (USA300 inhibitory AIP supernatant), read-out: % Inhibition
[2] = 40 μM compound, 2 hours at 37° C., luminescence

Compound	inhibition at 40 µM [1]	other results
C=C1CC[C@H](O)C/C1=C/C=C1\CCC[C@]2(C)[C@@H]([C@H](C)/C=C/[C@H](C)C(C)C)CC[C@@H]12 [ERGOCALCIFEROL]	51.9%	–
Nc1ccc(/N=N/c2ccccc2)c(N)n1 [PHENAZOPYRIDINE HYDROCHLORIDE]	75.5%	–
C[C@H](CCC(=O)O)[C@H]1CC[C@H]2[C@@H]3CC[C@@H]4CCCC[C@]4(C)[C@H]3CC[C@]12C [URSOCHOLANIC ACID]	61.3%	–
CN1C[C@H](C(=O)N[C@]2(C)O[C@@]3(O)[C@@H]4CCCN4C(=O)[C@H](Cc4ccccc4)N3C2=O)C[C@@H]2c3cccc4[nH]cc(c34)C[C@H]21 [DIHYDROERGOTAMINE MESYLATE]	52.2%	–
CCCC[C@@H](CC)COC(=O)C(C#N)=C(c1ccccc1)c1ccccc1 [OCTOCRYLENE | EUSOLEX, OCTOCRYLENE]	–	% Inhibition [2]: 97.9%
O=C1C(Cl)=C(Cl)C(=O)C(Cl)=C1Cl [CHLORANIL]	47.7%	–
c1ccc2c(c1)sc1ccccc12 [DIBENZOTHIOPHENE]	50.7%	–
Cc1cc(CC(=O)O)n(C)c1C(=O)c1ccc(Cl)cc1 [ZOMEPIRAC SODIUM]	64.8%	–
Cc1ccc(S(=O)(=O)N[C@@H](Cc2ccccc2)C(=O)CCl)cc1 [TPCK]	–	% Inhibition [2]: 87.8%
C#C[C@]1(O)CC[C@H]2[C@@H]3CCC4=CC(=O)CC[C@@H]4[C@H]3CC[C@@]21C [NORETHINDRONE]	52.4%	–
Oc1nc(-c2ccc(C(F)(F)F)cc2)nc2c1CSCC2 [XAV939]	53.4%	–
COc1cc(C)c(Cc2cnc(N)nc2N)cc1OC [CPD000466374_ORMETOPRIM, ORMETOPRIM]	53.2%	–
COc1ccc(CNC(=O)Nc2ncc([N+](=O)[O-])s2)cc1 [361549, GSK-3b Inhibitor VIII, GSK-3b Inhibitor VIII]	–	% Inhibition [2]: 73.7%
C/C=C(/C(=C/C)c1ccc(O)cc1)c1ccc(O)cc1 [DIENESTROL]	90.8%	–
COC(=O)[C@H](c1ccccc1Cl)N1CCc2sccc2C1 [CLOPIDOGREL SULFATE]	69.4%	–
C#C[C@]1(O)CC[C@H]2[C@@H]3CCC4=Cc5oncc5C[C@]4(C)[C@H]3CC[C@@]21C [DANAZOL]	47.4%	–
O=C(N/N=C/c1ccc([N+](=O)[O-])o1)c1cc([N+](=O)[O-])cc([N+](=O)[O-])c1O [NIFURSOL]	63.9%	–
O=C(O)c1ccccc1Nc1cccc2c1C(=O)c1cccc(Nc3ccccc3C(=O)O)c1C2=O [NCI16221]	–	% Inhibition [2]: 49.9%
NCCOB(c1ccccc1)c1ccccc1 [AMINOETHOXYDIPHENYLBORANE]	82.1%	–
C[C@@H]1CC[C@@]2(OC1)O[C@H]1C[C@H]3[C@@H]4CC[C@@H]5C[C@@H](O)CC[C@]5(C)[C@H]4CC[C@]3(C)[C@H]1[C@@H]2C [SMILAGENIN]	–	% Inhibition [2]: 75.3%
O=c1c(O)c(-c2ccccc2)oc2cc(O)cc(O)c12 [Galangine]	–	% Inhibition [2]: 79.5%
CO/N=C1\C[C@]2(C[C@@H]3C[C@@H](C/C=C(\C)C[C@@H](C)/C=C/C=C4\CO[C@@H]5[C@H](O)C(C)=C[C@@H](C(=O)O3)[C@]45O)O2)O[C@H](/C(C)=C/C(C)C)[C@H]1C [MOXIDECTIN | CYDECTIN, MOXIDECTIN]	58.9%	–
O=C1c2cccc(O)c2C(=O)c2c(O)cccc21 [DANTRON]	76.1%	–
O=C(O)c1cc2cc(Cl)ccc2[nH]1 [5-CHLOROINDOLE-2-CARBOXYLIC ACID]	47.8%	–
Oc1cc2c(cc1O)C1c3ccc(O)c(O)c3OCC1(O)C2 (stereo not drawn) [HAEMATOXYLIN]	62.9%	–
Cc1c(Nc2ncccc2C(=O)O)cccc1C(F)(F)F [FLUNIXIN MEGLUMINE | BANAMINE, FLUNIXIN MEGLUMINE]	69.2%	–

Compound	inhibition at 40 µM [1]	other results
O=C(NC(=O)c1c(F)cccc1F)Nc1cc(Cl)c(OC(F)(F)C(F)C(F)(F)F)cc1Cl (stereo not drawn) [LUFENURON | PROGRAM, LUFENURON]	55.8%	–
NCCCNCCCCNC(=O)C(NC(=O)CCCCCN=C(N)N)c1ccc(Br)cc1 (stereo not drawn) [4Br-AHX]	–	% Inhibition [2]: 55.8%
COc1ccc(-c2c(O)c3c(OC)c4c(cc3oc2=O)OC(C)(C)C=C4)cc1 [ROBUSTIC ACID]	96.9%	–
CC(C)c1ccc2c(c1)c(SC(C)(C)C)c(CC(C)(C)C(=O)O)n2Cc1ccc(Cl)cc1 [1H-Indole-2-propanoic acid, 1-[(4-chlorophenyl)methyl]-3-[(1,1-dimethylethyl)thio]-Alpha,Alpha-dimethyl-5-(1-methylethyl)-]	86.3%	–
CSc1ccc(/C=C2/C(C)=C(CC(=O)O)c3cc(F)ccc32)cc1 [Sulindac Sulfide]	72.4%	–
CC(C)c1cc2c(c(O)c1O)[C@@]1(C(=O)O)CCCC(C)(C)[C@@H]1CC2 [CARNOSIC ACID]	95.8%	–
Cc1ccsc1C(=CCCN1CCC[C@@H](C(=O)O)C1)c1sccc1C [CPD000469176_TIAGABINE HCl, TIAGABINE HCl]	69.7%	–
O=C1OC(c2ccc(O)cc2)(c2ccc(O)cc2)c2ccccc21 [PHENOLPHTHALEIN]	72.4%	–
Cc1ccc(Cl)c(Nc2ccccc2C(=O)O)c1Cl [SODIUM MECLOFENAMATE]	90.9%	–
Oc1c2ccccc2c2c3c(cccc13)N=N2 [SP 600125]	45.3%	–
CC(=O)Oc1cccc2c1C(=O)c1c(OC(C)=O)cc(C(=O)O)cc1C2=O [DIACERIN]	–	% Inhibition [2]: 76%
O=C(/C=C/c1ccc(O)cc1)c1ccccc1O [2′,4-DIHYDROXYCHALCONE]	71.9%	–
O=C(O)c1nn(Cc2ccc(Cl)cc2Cl)c2ccccc12 [Lonidamine]	71.3%	–
O=C(O)c1ccccc1Nc1cccc(OCc2ccc3ccccc3n2)c1 [SR 2640]	98.7%	–
COc1ccnc(C[S+]([O-])c2nc3ccc(OC(F)F)cc3[nH]2)c1OC (stereo not drawn) [PANTOPRAZOLE | PROTONIX, PANTOPRAZOLE]	52.8%	–
O=C(c1ccc(F)cc1)C1CCN(CCn2c(=S)[nH]c3ccccc3c2=O)CC1 [CPD000466283_Altanserin, Altanserin]	59%	–
Cc1ccc(Nc2c(F)cccc2Cl)c(CC(=O)O)c1 [LUMIRACOXIB | PREXIGE, LUMIRACOXIB]	60%	–
CCOc1cc(CC(=O)N[C@@H](CC(C)C)c2ccccc2N2CCCCC2)ccc1C(=O)O [CPD000466305_REPAGLINIDE, REPAGLINIDE]	49%	–
C=C1C[C@]23C[C@@]1(O)CC[C@H]2[C@@]12C=C[C@H](O)[C@@](C)(C(=O)O1)[C@H]2[C@@H]3C(=O)O [G[…]]	–	inhibition at 40 µM (USA300, 2 h): 60.5%
CCCc1c(OCCCCc2nnn[nH]2)ccc(C(C)=O)c1O [CPD000058555_LY 171883, LY 171883]	48.7%	–
CCC(=O)O[C@H]1CC[C@H]2[C@@H]3CCC4=CC(=O)CC[C@]4(C)[C@H]3CC[C@]12C [TESTOSTERONE PROPIONATE]	65.7%	–
CC(=O)O[C@]1(C(C)=O)CC[C@H]2[C@@H]3C=C(C)C4=CC(=O)CC[C@]4(C)[C@H]3CC[C@@]21C [MEGESTROL ACETATE]	46.5%	–
CC[C@H](c1ccc(O)cc1)[C@@H](CC)c1ccc(O)cc1 [HEXESTROL]	99.9%	–
CC(C)c1nc(CN(C)C(=O)N[C@H](C(=O)N[C@@H](Cc2ccccc2)C[C@H](O)[C@H](Cc2ccccc2)NC(=O)OCc2cncs2)C(C)C)cs1 [CPD000466395_RITONAVIR, RITONAVIR]	85.7%	–
Cc1cc(O)c2c(c1)C(=O)c1cccc(O)c1C2=O [CHRYSOPHANOL]	47.2%	–
